Read-outs that look alike come from different tables or passages of the source. Where a SMILES comes first, the peptide text is derived from it.
Target: T1, β-catenin (Homo sapiens, UniProt P35222)
T1 sequence (P35222 1-781): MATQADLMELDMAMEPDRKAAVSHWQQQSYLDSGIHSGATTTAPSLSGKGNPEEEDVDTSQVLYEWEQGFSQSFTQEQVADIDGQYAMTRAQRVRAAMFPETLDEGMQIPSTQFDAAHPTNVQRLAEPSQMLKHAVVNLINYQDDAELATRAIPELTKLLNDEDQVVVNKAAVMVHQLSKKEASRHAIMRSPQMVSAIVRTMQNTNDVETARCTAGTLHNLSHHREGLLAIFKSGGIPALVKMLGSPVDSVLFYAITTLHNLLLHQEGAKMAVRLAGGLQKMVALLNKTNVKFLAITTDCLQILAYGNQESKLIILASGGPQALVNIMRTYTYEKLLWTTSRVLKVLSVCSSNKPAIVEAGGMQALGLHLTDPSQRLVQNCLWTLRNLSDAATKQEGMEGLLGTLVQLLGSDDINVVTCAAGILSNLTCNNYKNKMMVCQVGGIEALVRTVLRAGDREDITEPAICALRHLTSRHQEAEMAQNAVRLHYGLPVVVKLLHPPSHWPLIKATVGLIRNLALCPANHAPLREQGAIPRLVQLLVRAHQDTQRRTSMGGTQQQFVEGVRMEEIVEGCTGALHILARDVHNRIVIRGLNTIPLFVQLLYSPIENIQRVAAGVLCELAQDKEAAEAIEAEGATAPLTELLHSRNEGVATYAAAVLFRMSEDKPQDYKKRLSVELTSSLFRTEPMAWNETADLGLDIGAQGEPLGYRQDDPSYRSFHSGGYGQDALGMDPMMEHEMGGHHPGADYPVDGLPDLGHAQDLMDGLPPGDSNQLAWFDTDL
Assay: KD50 measurement using competitive fluorescence polarization (FP) with labelled TCF4
Format: binding
Conditions: fluorescence polarization, β-catenin
In short: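 Each compound competes against labelled TCF4 (5 nM) for 100 nM β-catenin at room temperature, tested over 10 nM to 30 uM. Signal: polarization at 470/520 nm excitation/emission. Three repeat experiments were performed.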

Structure (SMILES)	β-Cat FP Hill slope	Kd (read-out: β-Cat FP KD) [nM]	Kd (β-Cat FP KD) [nM]
CC[C@H](C)[C@@H]1NC(=O)[C@@H](NC(=O)[C@H](CCC(N)=O)NC(=O)[C@H](C)N(C)C(=O)[C@H](Cc2c[nH]c3ccccc23)NC(C)=O)CCCCNC(=O)CC[C@@H](C(=O)N[C@@H](Cc2c[nH]cn2)C(=O)N[C@H](C(=O)N[C@@H](CCC(N)=O)C(=O)N[C@@H](CCCNC(=N)N)C(=O)N[C@H](C(=O)N[C@@H](Cc2c[nH]c3ccccc23)C(N)=O)C(C)C)C2CCCCC2)NC(=O)[C@H](CC(=O)O)NC(=O)[C@H](CC(C)C)NC1=O [compound 446] (HELM PEPTIDE1{[ac].W.[meA].Q.K.I.L.D.E.H.[O=C([C@@H](N[*:1])C1CCCCC1)[*:2]].Q.R.V.W.[am]}$PEPTIDE1,PEPTIDE1,5:R3-9:R3$$$V2.0)	0.7	< 400	–
CCCCCCCCCCCC(=O)N[C@@H](Cc1c[nH]c2ccccc12)C(=O)N(C)[C@@H](C)C(=O)N[C@@H](CCC(N)=O)C(=O)N[C@H]1CCCCNC(=O)CC[C@@H](C(=O)N[C@@H](Cc2c[nH]cn2)C(=O)N[C@H](C(=O)N[C@@H](CCC(N)=O)C(=O)N[C@@H](CCCNC(=N)N)C(=O)N[C@H](C(=O)N[C@@H](Cc2c[nH]c3ccccc23)C(N)=O)C(C)C)C2CCCCC2)NC(=O)[C@H](CC(=O)O)NC(=O)[C@H](CC(C)C)NC(=O)[C@H]([C@@H](C)CC)NC1=O [compound 447] (HELM PEPTIDE1{[CCCCCCCCCCCC(=O)[*:2]].W.[meA].Q.K.I.L.D.E.H.[O=C([C@@H](N[*:1])C1CCCCC1)[*:2]].Q.R.V.W.[am]}$PEPTIDE1,PEPTIDE1,5:R3-9:R3$$$V2.0)	–	< 400	–
CC[C@H](C)[C@@H]1NC(=O)[C@H](CO)NC(=O)[C@@H](NC(=O)[C@H](C)N(C)C(=O)[C@H](Cc2c[nH]c3ccccc23)NC(C)=O)CCC(=O)NCCCC[C@@H](C(=O)N[C@@H](CCC(=O)O)C(=O)N[C@@H](Cc2c[nH]cn2)C(=O)N[C@H](C(=O)N[C@@H](CCC(N)=O)C(=O)N[C@@H](CCCNC(=N)N)C(=O)N[C@H](C(=O)N[C@@H](Cc2c[nH]c3ccccc23)C(=O)NCC(N)=O)C(C)C)C(C)C)NC(=O)[C@H](CC(C)C)NC1=O [compound 450] (HELM PEPTIDE1{[ac].W.[meA].E.S.I.L.K.E.H.V.Q.R.V.W.G.[am]}$PEPTIDE1,PEPTIDE1,4:R3-8:R3$$$V2.0)	0.79	400 to 1000	–
CCCCCCCCCCCC(=O)N[C@@H](Cc1c[nH]c2ccccc12)C(=O)N(C)[C@@H](C)C(=O)N[C@H]1CCC(=O)NCCCC[C@@H](C(=O)N[C@@H](CCC(=O)O)C(=O)N[C@@H](Cc2c[nH]cn2)C(=O)N[C@H](C(=O)N[C@@H](CCC(N)=O)C(=O)N[C@@H](CCCNC(=N)N)C(=O)N[C@H](C(=O)N[C@@H](Cc2c[nH]c3ccccc23)C(=O)NCC(N)=O)C(C)C)C(C)C)NC(=O)[C@H](CC(C)C)NC(=O)[C@H]([C@@H](C)CC)NC(=O)[C@H](CO)NC1=O [compound 451] (HELM PEPTIDE1{[CCCCCCCCCCCC(=O)[*:2]].W.[meA].E.S.I.L.K.E.H.V.Q.R.V.W.G.[am]}$PEPTIDE1,PEPTIDE1,4:R3-8:R3$$$V2.0)	–	1000 to 10000	–
CCCCCCCCCCCC(=O)N[C@@H](Cc1c[nH]c2ccccc12)C(=O)N(C)[C@@H](C)C(=O)N[C@@H](CCC(N)=O)C(=O)N[C@H]1CCCCNC(=O)C[C@@H](C(=O)N[C@@H](Cc2c[nH]cn2)C(=O)N[C@H](C(=O)N[C@@H](CCC(N)=O)C(=O)N[C@@H](C)C(=O)N[C@H](C(N)=O)C(C)C)C2CCCCC2)NC(=O)[C@H](CC(N)=O)NC(=O)[C@H](CC(C)C)NC(=O)[C@H]([C@@H](C)CC)NC1=O [compound 453] (HELM PEPTIDE1{[CCCCCCCCCCCC(=O)[*:2]].W.[meA].Q.K.I.L.N.D.H.[O=C([C@@H](N[*:1])C1CCCCC1)[*:2]].Q.A.V.[am]}$PEPTIDE1,PEPTIDE1,5:R3-9:R3$$$V2.0)	–	–	1000 to 10000
CCCCCCCCCCCCCCCC(=O)N[C@@H](Cc1c[nH]c2ccccc12)C(=O)N(C)[C@@H](C)C(=O)N[C@@H](CCC(N)=O)C(=O)N[C@H]1CCCCNC(=O)C[C@@H](C(=O)N[C@@H](Cc2c[nH]cn2)C(=O)N[C@H](C(=O)N[C@@H](CCC(N)=O)C(=O)N[C@@H](C)C(=O)N[C@H](C(N)=O)C(C)C)C2CCCCC2)NC(=O)[C@H](CC(N)=O)NC(=O)[C@H](CC(C)C)NC(=O)[C@H]([C@@H](C)CC)NC1=O [compound 454] (HELM PEPTIDE1{[CCCCCCCCCCCCCCCC(=O)[*:2]].W.[meA].Q.K.I.L.N.D.H.[O=C([C@@H](N[*:1])C1CCCCC1)[*:2]].Q.A.V.[am]}$PEPTIDE1,PEPTIDE1,5:R3-9:R3$$$V2.0)	–	–	1000 to 10000
CC[C@H](C)[C@@H]1NC(=O)[C@@H](NC(=O)[C@H](CCC(N)=O)NC(=O)C(C)(C)NC(=O)[C@H](Cc2c[nH]c3ccccc23)NC(C)=O)CCCCNC(=O)C[C@@H](C(=O)N[C@@H](Cc2c[nH]cn2)C(=O)N[C@H](C(=O)N[C@@H](CCC(N)=O)C(=O)N[C@@H](CCCNC(=N)N)C(=O)N[C@H](C(=O)N[C@@H](Cc2c[nH]c3ccccc23)C(N)=O)C(C)C)C2CCCCC2)NC(=O)[C@H](CC(N)=O)NC(=O)[C@H](CC(C)C)NC1=O [compound 455] (HELM PEPTIDE1{[ac].W.[Aib].Q.K.I.L.N.D.H.[O=C([C@@H](N[*:1])C1CCCCC1)[*:2]].Q.R.V.W.[am]}$PEPTIDE1,PEPTIDE1,5:R3-9:R3$$$V2.0)	1.03	< 400	–
CC[C@H](C)[C@@H]1NC(=O)[C@@H](NC(=O)[C@H](CCC(N)=O)NC(=O)[C@H](C)N(C)C(=O)[C@H](Cc2c[nH]c3ccccc23)NC(C)=O)CCCCNC(=O)C[C@@H](C(=O)N[C@@H](Cc2c[nH]cn2)C(=O)N[C@H](C(=O)N[C@@H](CCC(N)=O)C(=O)N[C@@H](C)C(=O)N[C@H](C(=O)N[C@@H](Cc2c[nH]c3ccccc23)C(N)=O)C(C)C)C2CCCCC2)NC(=O)[C@H](CC(N)=O)NC(=O)[C@H](CC(C)C)NC1=O [compound 458] (HELM PEPTIDE1{[ac].W.[meA].Q.K.I.L.N.D.H.[O=C([C@@H](N[*:1])C1CCCCC1)[*:2]].Q.A.V.W.[am]}$PEPTIDE1,PEPTIDE1,5:R3-9:R3$$$V2.0)	0.7	400 to 1000	–

More lines, main results first:

β-Cat FP Hill slope	Kd (read-out: β-Cat FP KD) [nM]	Structure (SMILES)	Kd (β-Cat FP KD) [nM]
0.7	< 400	CC[C@H](C)[C@H](NC(=O)[C@H](CO)NC(=O)[C@H](CCC(N)=O)NC(=O)[C@H](C)N(C)C(=O)[C@H](Cc1c[nH]c2ccccc12)NC(C)=O)C(=O)N[C@@H](CC(C)C)C(=O)N[C@@H](CC(=O)O)C(=O)N[C@H]1CCC(=O)NCCCC[C@@H](C(=O)N[C@H](C(=O)N[C@@H](Cc2c[nH]c3ccccc23)C(=O)NCC(N)=O)C(C)C)NC(=O)[C@H](CCC(N)=O)NC(=O)[C@H](C(C)C)NC(=O)[C@H](Cc2c[nH]cn2)NC1=O [compound 437] (HELM PEPTIDE1{[ac].W.[meA].Q.S.I.L.D.E.H.V.Q.K.V.W.G.[am]}$PEPTIDE1,PEPTIDE1,9:R3-13:R3$$$V2.0)	–
–	< 400	CCCCCCCCC(=O)N[C@@H](Cc1c[nH]c2ccccc12)C(=O)N(C)[C@@H](C)C(=O)N[C@@H](CCC(N)=O)C(=O)N[C@@H](CO)C(=O)N[C@H](C(=O)N[C@@H](CC(C)C)C(=O)N[C@@H](CC(=O)O)C(=O)N[C@H]1CCC(=O)NCCCC[C@@H](C(=O)N[C@H](C(=O)N[C@@H](Cc2c[nH]c3ccccc23)C(=O)NCC(N)=O)C(C)C)NC(=O)[C@H](CCC(N)=O)NC(=O)[C@H](C(C)C)NC(=O)[C@H](Cc2c[nH]cn2)NC1=O)[C@@H](C)CC [compound 438] (HELM PEPTIDE1{[CCCCCCCCC(=O)[*:2]].W.[meA].Q.S.I.L.D.E.H.V.Q.K.V.W.G.[am]}$PEPTIDE1,PEPTIDE1,9:R3-13:R3$$$V2.0)	–
–	< 400	CCCCCCCCCCCC(=O)N[C@@H](Cc1c[nH]c2ccccc12)C(=O)N(C)[C@@H](C)C(=O)N[C@@H](CCC(N)=O)C(=O)N[C@@H](CO)C(=O)N[C@H](C(=O)N[C@@H](CC(C)C)C(=O)N[C@@H](CC(=O)O)C(=O)N[C@H]1CCC(=O)NCCCC[C@@H](C(=O)N[C@H](C(=O)N[C@@H](Cc2c[nH]c3ccccc23)C(=O)NCC(N)=O)C(C)C)NC(=O)[C@H](CCC(N)=O)NC(=O)[C@H](C(C)C)NC(=O)[C@H](Cc2c[nH]cn2)NC1=O)[C@@H](C)CC [compound 439] (HELM PEPTIDE1{[CCCCCCCCCCCC(=O)[*:2]].W.[meA].Q.S.I.L.D.E.H.V.Q.K.V.W.G.[am]}$PEPTIDE1,PEPTIDE1,9:R3-13:R3$$$V2.0)	–
–	< 400	CCCCCCCCCCCC(=O)N[C@@H](CCC(=O)O)C(=O)N[C@@H](CC(=O)O)C(=O)N1CCC[C@H]1C(=O)N[C@@H](CCC(N)=O)C(=O)N[C@H]1CCCCNC(=O)CC[C@@H](C(=O)N[C@@H](Cc2c[nH]cn2)C(=O)N[C@@H](CC(C)C)C(=O)N[C@@H](CCC(N)=O)C(=O)N[C@@H](CCCNC(=N)N)C(=O)N[C@H](C(=O)N[C@@H](CC(C)C)C(=O)N[C@@H](CCCCN)C(N)=O)C(C)C)NC(=O)[C@H](CC(=O)O)NC(=O)[C@H](CC(C)C)NC(=O)[C@H]([C@@H](C)CC)NC1=O [compound 444] (HELM PEPTIDE1{[CCCCCCCCCCCC(=O)[*:2]].E.D.P.Q.K.I.L.D.E.H.L.Q.R.V.L.K.[am]}$PEPTIDE1,PEPTIDE1,6:R3-10:R3$$$V2.0)	–

— US12441768B2, “Compositions and methods for treating endometriosis” (EndoMet Biosciences, Inc., priority 2018, dated 2025)
